Columns and labels:
Assay type in all cases: in vivo
[1] = system: Italian ryegrass (Lolium multiflorum); assay: Herbicidal effect on Italian ryegrass (soil treatment); conditions: Comparative Test 2, Italian ryegrass, read-out: Growth inhibition rate
Description: (§1) Upland soil was put into a 1/300,000 hectare (ha) pot, seeds of barnyardgrass (Echinochloa crus-galli) were sown, and about 1.5 cm of cover soil was put. […] On the next day after sowing, the spray solution was sprayed with a small sprayer for soil treatment.
(§2) Upland soil was put into a 1/300,000 hectare (ha) pot, seeds of barnyardgrass (Echinochloa crus-galli), crabgrass (Digitaria sanguinalis), green foxtail (Setaria viridis), Italian ryegrass (Lolium multiflorum), redroot pigweed (Amaranthus retroflexus) and common chickweed (Stellaria media) were sown, and about 1.5 cm of cover soil was put.

[2] = system: common chickweed (Stellaria media); assay: Herbicidal effect on common chickweed (foliar treatment)
Protocol: (§3) Upland soil was put into a 1/300,000 hectare (ha) pot, seeds of barnyardgrass (Echinochloa crus-galli) were sown, and about 1.5 cm of cover soil was put. The barnyardgrass was grown for 10 days in a greenhouse until it reached a predetermined leaf stage. […] The spray solution was sprayed over the grown barnyardgrass with a small sprayer for foliar treatment.
(§4) Upland soil was put into a 1/300,000 hectare (ha) pot, seeds of barnyardgrass (Echinochloa crus-galli), crabgrass (Digitaria sanguinalis), green foxtail (Setaria viridis), wild oat (Avena fatua), Italian ryegrass (Lolium multiflorum), foxtail shortawn (Alopecurus aequalis), annual bluegrass (Poa annua), redroot pigweed (Amaranthus retroflexus), common chickweed (Stellaria media) common lambsquarters (Chenopodium album) and black nightshade (Solanum nigrum) were sown, and about 1.5 cm of cover soil was put. The plants were grown for 10 days in a greenhouse until they reached a predetermined leaf stage.

[3] = system: black nightshade (Solanum nigrum); assay: Herbicidal effect on black nightshade (foliar treatment)
Protocol: as §3, §4

[4] = system: mexican burningbush (Kochia scoparia); assay: Herbicidal effect on mexican burningbush (soil treatment); conditions: Bassia scoparia, 14th day, read-out: growth inhibition rate
Description: Upland soil was put into a 1/300,000 hectare (ha) pot, seeds of barnyardgrass (Echinochloa crus-galli) were sown, and about 1.5 cm of cover soil was put. The Invention Compound was weighed to achieve a predetermined active ingredient amount, dissolved in acetone (containing 0.5 vol % of surfactant (TritonX-100: manufactured by Kishida Chemical Co., Ltd.)) or dimethyl sulfoxide and diluted with water (containing 0.1 vol % of agricultural spreader (Surfactant WK: manufactured by MARUWA Biochemical Co., Ltd.)) in an amount corresponding to 1,000 liter per hectare, to prepare a spray solution. On the next day after sowing, the spray solution was sprayed with a small sprayer for soil treatment.
On the 14th day after the soil treatment, the state of growth of each plant was visually observed.
To confirm herbicidal effect on mexican burningbush (Kochia scoparia), the same test as in Test Example 2 (2-1) (soil treatment) was conducted using the following compounds.

[5] = system: common lambsquarters (Chenopodium album); assay: Herbicidal effect on common lambsquarters (foliar treatment)
Protocol: as §3, §4

[6] = system: crabgrass (Digitaria sanguinalis); assay: Herbicidal effect on crabgrass (soil treatment)
Description: as §1, §2

[7] = system: common chickweed (Stellaria media); assay: Comparative Test 2: herbicidal effect on common chickweed (soil treatment); conditions: Comparative Test 2, common chickweed, read-out: Growth inhibition rate
Description: Upland soil was put into a 1/300,000 hectare (ha) pot, seeds of barnyardgrass (Echinochloa crus-galli), crabgrass (Digitaria sanguinalis), green foxtail (Setaria viridis), Italian ryegrass (Lolium multiflorum), redroot pigweed (Amaranthus retroflexus) and common chickweed (Stellaria media) were sown, and about 1.5 cm of cover soil was put. The Invention Compound (Aa-1-1, Aa-9-2) or the compound 4b described in Patent Document 1 was weighed to achieve a predetermined active ingredient dose, dissolved in acetone (containing 0.5 vol % of surfactant (TritonX-100: manufactured by Kishida Chemical Co., Ltd.)) or dimethyl sulfoxide and diluted with water (containing 0.1 vol % of agricultural spreader (Surfactant WK: manufactured by MARUWA Biochemical Co., Ltd.) in an amount corresponding to 1,000 liter per hectare, to prepare each spray solution. On the next day after sowing, each spray solution was sprayed with a small sprayer for soil treatment. On the 14th day after the soil treatment, the state of growth of each plant was visually observed, and the herbicidal effect was evaluated in accordance with the growth inhibition rate (%) of from 0 (equivalent to the non-treated area) to 100 (complete kill).

[8] = system: crabgrass (Digitaria sanguinalis); assay: Herbicidal effect on crabgrass (foliar treatment)
Protocol: as §3, §4

[9] = system: redroot pigweed (Amaranthus retroflexus); assay: Herbicidal effect on redroot pigweed (foliar treatment)
Protocol: as §3, §4

[10] = system: Italian ryegrass (Lolium multiflorum); assay: Herbicidal effect on Italian ryegrass (foliar treatment)
Protocol: as §3, §4

[11] = system: foxtail shortawn (Alopecurus aequalis); assay: Herbicidal effect on foxtail shortawn (foliar treatment)
Protocol: as §3, §4

[12] = system: redroot pigweed (Amaranthus retroflexus); assay: Herbicidal effect on redroot pigweed (soil treatment)
Description: as §1, §2

[13] = system: barnyardgrass (Echinochloa crus-galli); assay: Herbicidal effect on barnyardgrass (foliar treatment)
Protocol: as §3, §4

[14] = system: green foxtail (Setaria viridis); assay: Herbicidal effect on green foxtail (foliar treatment)
Protocol: as §3, §4

[15] = system: barnyardgrass (Echinochloa crus-galli); assay: Herbicidal effect on barnyardgrass (soil treatment)
Description: as §1, §2

[16] = system: annual bluegrass (Poa annua); assay: Herbicidal effect on annual bluegrass (foliar treatment)
Protocol: as §3, §4

[17] = system: green foxtail (Setaria viridis); assay: Herbicidal effect on green foxtail (soil treatment)
Description: as §1, §2

wild oat (Avena fatua) = assay: Herbicidal effect on wild oat (foliar treatment)
Protocol: as §3, §4

[18] = crabgrass, 250 g/ha, 14th day, read-out: growth inhibition rate
[19] = redroot pigweed, 250 g/ha, 14th day, read-out: growth inhibition rate
[20] = barnyardgrass, 250 g/ha, 14th day, read-out: growth inhibition rate
[21] = green foxtail, 250 g/ha, 14th day, read-out: growth inhibition rate

COC(=O)[C@H]1C[C@@H](NC(=O)C(F)(F)/C=C/c2cc(F)cc(F)c2)C1 [Aa-1-1]
≥ 90%: inhibition at 500 g/ha ([1]; 500 g/ha) | inhibition at 1000 g/ha ([1]; 1000 g/ha) | inhibition at 500 g/ha ([2]; Comparative Test 1, common chickweed, 500 g/ha, read-out: Growth inhibition rate) | inhibition at 1000 g/ha ([2]; Comparative Test 1, common chickweed, 1000 g/ha, read-out: Growth inhibition rate) | inhibition at 1000 g/ha ([3]; Comparative Test 1, black nightshade, 1000 g/ha, read-out: Growth inhibition rate) | inhibition at 500 g/ha ([6]; Comparative Test 2, crabgrass, 500 g/ha, read-out: Growth inhibition rate) | inhibition at 1000 g/ha ([6]; Comparative Test 2, crabgrass, 1000 g/ha, read-out: Growth inhibition rate) | inhibition at 500 g/ha ([7]; 500 g/ha) | inhibition at 1000 g/ha ([7]; 1000 g/ha) | inhibition at 500 g/ha ([8]; Comparative Test 1, crabgrass, 500 g/ha, read-out: Growth inhibition rate) | inhibition at 1000 g/ha ([8]; Comparative Test 1, crabgrass, 1000 g/ha, read-out: Growth inhibition rate) | inhibition at 500 g/ha ([10]; Comparative Test 1, Italian ryegrass, 500 g/ha, read-out: Growth inhibition rate) | inhibition at 1000 g/ha ([10]; Comparative Test 1, Italian ryegrass, 1000 g/ha, read-out: Growth inhibition rate) | inhibition at 500 g/ha ([11]; Comparative Test 1, foxtail shortawn, 500 g/ha, read-out: Growth inhibition rate) | inhibition at 1000 g/ha ([11]; Comparative Test 1, foxtail shortawn, 1000 g/ha, read-out: Growth inhibition rate) | inhibition at 500 g/ha ([12]; Comparative Test 2, redroot pigweed, 500 g/ha, read-out: Growth inhibition rate) | inhibition at 1000 g/ha ([12]; Comparative Test 2, redroot pigweed, 1000 g/ha, read-out: Growth inhibition rate) | inhibition at 500 g/ha ([13]; Comparative Test 1, barnyardgrass, 500 g/ha, read-out: Growth inhibition rate) | inhibition at 1000 g/ha ([13]; Comparative Test 1, barnyardgrass, 1000 g/ha, read-out: Growth inhibition rate) | inhibition at 500 g/ha ([14]; Comparative Test 1, green foxtail, 500 g/ha, read-out: Growth inhibition rate) | inhibition at 1000 g/ha ([14]; Comparative Test 1, green foxtail, 1000 g/ha, read-out: Growth inhibition rate) | inhibition at 500 g/ha ([15]; Comparative Test 2, barnyardgrass, 500 g/ha, read-out: Growth inhibition rate) | inhibition at 1000 g/ha ([15]; Comparative Test 2, barnyardgrass, 1000 g/ha, read-out: Growth inhibition rate) | inhibition at 500 g/ha ([16]; Comparative Test 1, annual bluegrass, 500 g/ha, read-out: Growth inhibition rate) | inhibition at 1000 g/ha ([16]; Comparative Test 1, annual bluegrass, 1000 g/ha, read-out: Growth inhibition rate) | inhibition at 500 g/ha ([17]; Comparative Test 2, green foxtail, 500 g/ha, read-out: Growth inhibition rate) | inhibition at 1000 g/ha ([17]; Comparative Test 2, green foxtail, 1000 g/ha, read-out: Growth inhibition rate) | inhibition at 500 g/ha (wild oat (Avena fatua); Comparative Test 1, wild oat, 500 g/ha, read-out: Growth inhibition rate) | inhibition at 1000 g/ha (wild oat (Avena fatua); Comparative Test 1, wild oat, 1000 g/ha, read-out: Growth inhibition rate)
≥ 70%: inhibition at 250 g/ha ([2]; common chickweed, 250 g/ha, 14th day, read-out: growth inhibition rate) | inhibition at 250 g/ha ([3]; black nightshade, 250 g/ha, 14th day, read-out: growth inhibition rate) | inhibition at 250 g/ha [4] | inhibition at 250 g/ha ([5]; common lambsquarters, 250 g/ha, 14th day, read-out: growth inhibition rate) | inhibition at 250 g/ha [6, 18] | inhibition at 250 g/ha [8, 18] | inhibition at 250 g/ha [9, 19] | inhibition at 250 g/ha ([10]; Italian ryegrass, 250 g/ha, 14th day, read-out: growth inhibition rate) | inhibition at 250 g/ha ([11]; foxtail shortawn, 250 g/ha, 14th day, read-out: growth inhibition rate) | inhibition at 250 g/ha [12, 19] | inhibition at 250 g/ha [13, 20] | inhibition at 250 g/ha [14, 21] | inhibition at 250 g/ha [15, 20] | inhibition at 250 g/ha ([16]; annual bluegrass, 250 g/ha, 14th day, read-out: growth inhibition rate) | inhibition at 250 g/ha [17, 21] | inhibition at 250 g/ha (wild oat (Avena fatua); wild oat, 250 g/ha, 14th day, read-out: growth inhibition rate)
70 to 90%: inhibition at 500 g/ha ([3]; Comparative Test 1, black nightshade, 500 g/ha, read-out: Growth inhibition rate) | inhibition at 500 g/ha ([5]; Comparative Test 1, common lambsquarters, 500 g/ha, read-out: Growth inhibition rate) | inhibition at 1000 g/ha ([5]; Comparative Test 1, common lambsquarters, 1000 g/ha, read-out: Growth inhibition rate) | inhibition at 500 g/ha ([9]; Comparative Test 1, redroot pigweed, 500 g/ha, read-out: Growth inhibition rate) | inhibition at 1000 g/ha ([9]; Comparative Test 1, redroot pigweed, 1000 g/ha, read-out: Growth inhibition rate)
